Some test systems named below: TK-10 renal; SK-MEL-2 melanoma; SF-268 CNS; HS 578T breast; SNB-75 CNS; UACC-62 melanoma; NCI-H23 lung; SK-MEL-5 melanoma; UO-31 renal; SN12C renal.
Holding throughout (experiment): NCI-60 cell line screen, 48 h

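Tested at 5 concentrations; 48 h exposure; 96-well plates; endpoints linearly interpolated, else capped at highest concentration. Definition used: TGI = concentration required for complete inhibition of growth.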

In the case of `COC(CC1(CCNc2ccccc2)C(=O)N(COCC[Si](C)(C)C)c2ccccc21)OC` (configuration not stated), the TGI stood at 28.9 µM in the test on TK-10 renal; 29.9 µM in the test with SK-MEL-2 melanoma; 26.3 µM in the test on SF-268 CNS; 41.4 µM in the test with HS 578T breast; 14.3 µM in the test on SNB-75 CNS; 29.8 µM in the test with UACC-62 melanoma. Also, the TGI with NCI-H23 lung was 32.9 µM; in the test with SK-MEL-5 melanoma it was more than 100 µM; in the test with UO-31 renal it was 29.6 µM; with SN12C renal, 53.6 µM.
Take `CC(=O)NCC1OC2COC(c3ccccc3)OC2C2N=C(c3ccccc3)OC12` (configuration not stated): the TGI in the test with TK-10 renal, in the test with SK-MEL-2 melanoma, in the test on SF-268 CNS, with HS 578T breast, in the test on SNB-75 CNS and in the test with UACC-62 melanoma was more than 100 µM in each case. In addition, the TGI with NCI-H23 lung, in the test on SK-MEL-5 melanoma, in the test with UO-31 renal and in the test on SN12C renal was more than 100 µM throughout.
As for `O=C1Sc2cc3ccccc3cc2C(=O)Sc2cc3ccccc3cc21`, the TGI was more than 100 µM with TK-10 renal; more than 66.5 µM with SK-MEL-2 melanoma; more than 83.7 µM in the test on SF-268 CNS; more than 100 µM in the test with HS 578T breast; more than 100 µM in the test with SNB-75 CNS; 67.2 µM in the test with UACC-62 melanoma. The TGI in the test on NCI-H23 lung was more than 100 µM; with SK-MEL-5 melanoma, more than 100 µM; with UO-31 renal, 37.1 µM; in the test with SN12C renal it was 75.7 µM.
Turning to `COc1ccc(OC)c(-c2cn3c(n2)sc2ccccc23)c1`, the TGI in the test with TK-10 renal, with SK-MEL-2 melanoma, in the test with SF-268 CNS, with HS 578T breast, with SNB-75 CNS and in the test on UACC-62 melanoma was more than 100 µM each time. Moreover, the TGI in the test on NCI-H23 lung, in the test with SK-MEL-5 melanoma, in the test with UO-31 renal and with SN12C renal was more than 100 µM throughout.
On to `C/C(=C\COP(=O)(O)OP(=O)(O)O)CC/C=C(\C)CNc1ccccc1`, for which the TGI with TK-10 renal, in the test with SK-MEL-2 melanoma, in the test on SF-268 CNS, in the test with HS 578T breast, in the test on SNB-75 CNS and in the test on UACC-62 melanoma was more than 50 µM in each case. In addition, the TGI in the test with SK-MEL-5 melanoma, in the test with UO-31 renal and in the test with SN12C renal was more than 50 µM in each case.
On to `Cc1cn([C@@H]2C[C@](C)(CO)N(C)O2)c(=O)[nH]c1=O`, for which the TGI in the test on TK-10 renal, with SK-MEL-2 melanoma, in the test with SF-268 CNS, in the test with HS 578T breast, with SNB-75 CNS and in the test with UACC-62 melanoma was more than 100 µM throughout. For the same compound, the TGI with NCI-H23 lung, in the test on SK-MEL-5 melanoma, in the test with UO-31 renal and in the test on SN12C renal was more than 100 µM each time.
`C=C(C)C(=O)O[C@H]1CC2(CO)O[C@@H]2CC/C(COC(C)=O)=C/C2OC(=O)C(=C)[C@@H]21` (some centres not stated): the TGI in the test with TK-10 renal was more than 56.6 µM; in the test with SK-MEL-2 melanoma it was more than 100 µM; in the test with SF-268 CNS it was more than 100 µM; in the test on HS 578T breast it was more than 100 µM; in the test on SNB-75 CNS, more than 100 µM; with UACC-62 melanoma, more than 100 µM. Besides, the TGI was more than 100 µM in the test on NCI-H23 lung, more than 100 µM with SK-MEL-5 melanoma, 59.4 µM in the test on UO-31 renal and more than 100 µM with SN12C renal.
With `CCCOC1OC(CS(=O)(=O)O)C(OC(C)=O)C(OC(C)=O)C1OC(C)=O` (configuration not stated), the TGI in the test on TK-10 renal, in the test on SK-MEL-2 melanoma, with HS 578T breast, in the test on SNB-75 CNS, in the test with UACC-62 melanoma and in the test with NCI-H23 lung was more than 100 µM throughout. Moreover, the TGI with SK-MEL-5 melanoma, with UO-31 renal and with SN12C renal was more than 100 µM each time.
As for `Cc1ccc(S(=O)(=O)CC2CCCn3c2c(C#N)c2ccccc23)cc1` (configuration not stated), the TGI in the test on TK-10 renal, in the test with SK-MEL-2 melanoma, in the test on SF-268 CNS, in the test on HS 578T breast, in the test on SNB-75 CNS and with UACC-62 melanoma was more than 100 µM in each case. In addition, the TGI in the test on NCI-H23 lung, in the test on SK-MEL-5 melanoma, in the test with UO-31 renal and in the test with SN12C renal was more than 100 µM in each case.
Take `Cc1cc2nc3c(N)nn(CCN(C)C)c3nc2cc1C`: the TGI with TK-10 renal was more than 100 µM; in the test with SK-MEL-2 melanoma it was more than 100 µM; with SF-268 CNS, more than 100 µM; in the test on HS 578T breast it was more than 100 µM; with SNB-75 CNS it was 97.9 µM; in the test on UACC-62 melanoma, more than 100 µM. The TGI in the test with NCI-H23 lung, in the test with SK-MEL-5 melanoma, with UO-31 renal and in the test on SN12C renal was more than 100 µM each time.
Consider `C/C=C\C(CC(=O)NCCc1c[nH]c2ccccc12)CC(=O)OC` (configuration not stated), for which the TGI in the test on TK-10 renal, in the test on SK-MEL-2 melanoma, with SF-268 CNS, in the test with HS 578T breast, in the test with SNB-75 CNS and with UACC-62 melanoma was more than 100 µM each time. The TGI with NCI-H23 lung, in the test with SK-MEL-5 melanoma and in the test with UO-31 renal was more than 100 µM throughout.
As to `CCOc1ccccc1N=NC1C(=O)N(C(=O)CC(=O)Nc2ccccc2OC)N=C1C` (configuration not stated), the TGI was more than 100 µM in the test with TK-10 renal; more than 100 µM with SK-MEL-2 melanoma; 68.8 µM in the test on SF-268 CNS; 12.2 µM with HS 578T breast; 42.1 µM in the test with SNB-75 CNS; more than 100 µM in the test on UACC-62 melanoma. In addition, the TGI in the test on NCI-H23 lung was more than 100 µM; in the test on SK-MEL-5 melanoma it was more than 100 µM; with UO-31 renal it was 68.2 µM; in the test on SN12C renal, more than 100 µM.
For `CC(=O)Nc1nc(C)c(S(=O)(=O)NC(=O)N2c3ccccc3CCc3ccccc32)s1`, the TGI in the test on TK-10 renal, with SK-MEL-2 melanoma, in the test with SF-268 CNS, in the test on HS 578T breast, in the test on SNB-75 CNS and in the test with UACC-62 melanoma was more than 100 µM throughout. The TGI in the test with NCI-H23 lung, in the test with SK-MEL-5 melanoma, in the test with UO-31 renal and in the test on SN12C renal was more than 100 µM each time.
For `CN1CCCC(OC(=O)c2cc3cc(CCl)ccc3oc2=O)C1` (configuration not stated), the TGI in the test on TK-10 renal was 48.8 µM; in the test with SK-MEL-2 melanoma, 33.9 µM; in the test on SF-268 CNS, 47 µM; in the test on HS 578T breast, 56.6 µM; with SNB-75 CNS, 52.8 µM; with UACC-62 melanoma, 31.6 µM. The TGI in the test on NCI-H23 lung was 45.1 µM; in the test with SK-MEL-5 melanoma, 33.9 µM; with UO-31 renal it was 32.5 µM; in the test on SN12C renal it was 43.6 µM.

Source of the values: PubChem BioAssay (NCI).
